Source: patent US11485725B2, “Derivatives of piperlongumine and uses thereof” (Auransa Inc., priority 2017, dated 2022)
Read-outs that look alike come from different tables or passages of the source.

Experiments:
MOLP-8 = assay: In vitro cell viability assay (CellTiter-Glo, ATP levels), multiple myeloma cells; type: cell-based; conditions: Homo sapiens, MOLP-8, 168 h, 7-day incubation, CellTiter-Glo, average values; read-out: MOLP-8 IC50
In short: (§1)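 Cells plated overnight, then exposed to compounds over a concentration range for 7 days at 37 °C, 5% CO2. Viability read as ATP luminescence (CellTiter-Glo), normalised to positive and negative control wells; IC50 from Hill-equation non-linear regression of concentration–response curves.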

DU4475 = assay: In vitro cell viability assay (CellTiter-Glo, ATP levels), triple negative breast cancer cells; type: cell-based; conditions: Homo sapiens, DU-4475, 168 h, read-out: DU4475 IC50
In short: as §1

[1] = system: HCT116 (colorectal cancer) cells; assay: Resazurin-based cell viability assay using colorectal cancer cells; conditions: Homo sapiens, HCT-116, 72 hr incubation
In short: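 HCT116 cells in DMEM/10% FBS grown 24 h, then exposed to serially diluted compounds for 72 h at 37 °C. Viability read as resazurin (1 mM) fluorescence (ex 535/em 590 nm) after 4–6 h; background-subtracted, normalised to DMSO control, IC50 fitted from percent survival.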

[2] = In vivo pharmacokinetic analysis, plasma; parameters: species or system Balb/C female mice; conditions: mice, result in words
Method: In Vivo Pharmacokinetic Analysis
Age 8 to 9 weeks Balb/C female mice were used for this study. The mice were maintained in a special pathogen-free environment and in disposable cages. Animal room was set to maintain temperature and relative humidity at 23° C.±3° C. and 55%±15%, respectively. Housing room was on a 12:12 light/dark cycle. Water was supplied ad libitum to each cage via water bottles. All mice were fed rodent diet with 18% protein. All animals were weighed before commencement of the study.
Compound 1 was stored at 4° C. protected from light. Dosing solutions were used within 2 hours of preparation. Compound 1 was formulated within 2 hours prior to dosing by adding the pre-calculated volume of PEG 400 (40% of total solution volume). Formulated compound 1 was vortexed and sonicated until a clear solution was formed. […]
The concentration of Compound 1 was determined by a UPLC-TIS-MS-MS method (ultra performance liquid chromatography-turbo ion spray-tandem mass spectrometry). […]
Mass spectrometric analysis was performed using an AB Sciex API5000 with Turbo Ion Spray interface operating in a positive ionization mode. Quantification was performed using multiple reaction monitoring (MRM) method with the transitions of (m/z) 316.104→(m/z) 219.014 for Compound 1 and (m/z) 455.346→(m/z) 165 for verapamil (internal standard). […]

[3] = In vitro microsome stability analyses; type: in vitro ADME; conditions: result in words
[4] = 7-day incubation, CellTiter-Glo, average values

Structure (SMILES) | IC50 (MOLP-8) | IC50 (DU4475; [4]) | IC50 [1] | in vivo plasma half-life (t1/2) as compared to piperlongumine [2] | potency and/or metabolic stability [3] | IC50 (DU4475)
O=C1C=CCCN1C(=O)/C=C/c1ncc2c(n1)OCCO2 [Compound 80, (E)-1-(3-(6,7-dihydro-[1,4]dioxino[2,3-d]pyrimidin-2-yl)acryloyl)-5,6-dihydropyridin-2(1H)-one] | 1.15 µM | 1.8 µM | 3.21 µM |  |  | 
Cc1n[nH]c(C)c1/C=C/C(=O)N1CCC=CC1=O [Compound 81, (E)-1-(3-(3,5-dimethyl-1H-pyrazol-4-yl)acryloyl)-5,6-dihydropyridin-2(1H)-one] | 1.49 µM | 2.7 µM | 5.1 µM |  |  | 
O=C(Nc1ccc(F)cc1)N1CCC(/C=C/S(=O)(=O)N2CCC=CC2=O)CC1 [Compound 82, (E)-N-(4-fluorophenyl)-4-(2-((6-oxo-3,6-dihydropyridin-1(2H)-yl)sulfonyl)vinyl)piperidine-1-carboxamide] | 0.36 µM | 0.8 µM | 2.25 µM |  |  | 
Cn1cc(/C=C(\C(=O)N2CCC=CC2=O)c2ccccc2)cn1 [Compound 84, (Z)-1-(3-(1-methyl-1H-pyrazol-4-yl)-2-phenylacryloyl)-5,6-dihydropyridin-2(1H)-one] | 1.55 µM | 1.63 µM | 3.71 µM |  |  | 
C/C(=C\C1CCNCC1)C(=O)N1CCC=CC1=O [Compound 88, (E)-1-(2-methyl-3-(piperidin-4-yl)acryloyl)-5,6-dihydropyridin-2(1H)-one 2,2,2-trifluoroacetate] | 3.78 µM | 6.56 µM | 7.06 µM |  |  | 
O=C1C=CCCN1C(=O)/C=C/c1cn[nH]c1 [Compound 89, (E)-1-(3-(1H-pyrazol-4-yl)acryloyl)-5,6-dihydropyridin-2(1H)-one] | 3.58 µM | 8.41 µM | 2.7 µM |  |  | 
CC(C)(C)OC(=O)N1CCC(/C=C(/C(=O)N2CCC=CC2=O)c2ccccc2)CC1 [Compound 91, (E)-tert-butyl 4-(3-oxo-3-(2-oxo-5,6-dihydropyridin-1(2H)-yl)-2-phenylprop-1-enyl)piperidine-1-carboxylate] | 3.2 µM |  | 9.16 µM |  |  | 4.14 µM

Continued by falling IC50 (MOLP-8), values first:

IC50 (MOLP-8) | IC50 (DU4475; [4]) | IC50 [1] | Structure (SMILES) | in vivo plasma half-life (t1/2) as compared to piperlongumine [2] | potency and/or metabolic stability [3] | IC50 (DU4475)
4.6 µM | 6.79 µM | 31 µM | Cn1cc(/C=C/C(=O)N2CC(C)(C)C=CC2=O)cn1 [Compound 85, (E)-5,5-dimethyl-1-(3-(1-methyl-1H-pyrazol-4-yl)acryloyl)-5,6-dihydropyridin-2(1H)-one] |  |  | 
4.32 µM | 4.75 µM | 9.72 µM | CC(C)(C)OC(=O)N1CCC(/C=C(\C(=O)N2CCC=CC2=O)c2ccccc2)CC1 [Compound 92, (Z)-tert-butyl 4-(3-oxo-3-(2-oxo-5,6-dihydropyridin-1(2H)-yl)-2-phenylprop-1-enyl)piperidine-1-carboxylate] |  |  | 
3.66 µM | 5.53 µM | 10.1 µM | C/C(=C/C1CCNCC1)C(=O)N1CCC=CC1=O [Compound 87, (Z)-1-(2-methyl-3-(piperidin-4-yl)acryloyl)-5,6-dihydropyridin-2(1H)-one 2,2,2-trifluoroacetate] |  |  | 
3.34 µM | 5.44 µM | 7.5 µM | C/C(=C\C1CCN(CC2CC2)CC1)C(=O)N1CCC=CC1=O [Compound 77, (E)-1-(3-(1-(cyclopropylmethyl)piperidin-4-yl)-2-methylacryloyl)-5,6-dihydropyridin-2(1H)-one] |  |  | 
2.75 µM | 4.84 µM | 11.1 µM | Cn1cc(/C=C(/C(=O)N2CCC=CC2=O)c2ccccc2)cn1 [Compound 83, 1-[(2E)-3-(1-methyl-1H-pyrazol-4-yl)-2-phenylprop-2-enoyl]-5,6-dihydropyridin-2(1H)-one] |  |  | 
1.03 µM | 1.91 µM | 2.69 µM | C/C(=C/C1CCN(CC2CC2)CC1)C(=O)N1CCC=CC1=O [Compound 79, (Z)-1-(3-(1-(cyclopropylmethyl)piperidin-4-yl)-2-methylacryloyl)-5,6-dihydropyridin-2(1H)-one] |  |  | 
0.95 µM | 1.53 µM | 4.85 µM | C/C(=C/C1CCN(C(=O)Nc2ccc(F)cc2)CC1)C(=O)N1CCC=CC1=O [Compound 78] |  |  | 
0.85 µM | 1.67 µM | 3.83 µM | O=C1C=CCCN1C(=O)/C=C/c1cnn(C2CC2)c1 [Compound 86, (E)-1-(3-(1-cyclopropyl-1H-pyrazol-4-yl)acryloyl)-5,6-dihydropyridin-2(1H)-one] |  |  | 
0.74 µM | 0.83 µM | 1.9 µM | COc1cc(/C=C/C(=O)N2CCC=CC2=O)cc2c1OCCO2 [Compound 1, (E)-1-(3-(8-methoxy-2,3-dihydrobenzo[b][1,4]dioxin-6-yl)acryloyl)-5,6-dihydropyridin-2(1H)-one] | increased in vivo plasma half-life (t1/2) as compared to piperlongumine | demostrated potency and/or metabolic stability | 
0.563 µM | 1 µM | 1.85 µM | COc1cc(/C=C/S(=O)(=O)N2CCC=CC2=O)cc2c1OCCO2 [Compound 76, 1-{[(E)-2-(8-methoxy-2,3-dihydro-1,4-benzodioxin-6-yl)ethenyl]sulfonyl}-5,6-dihydropyridin-2(1H)-one] |  |  | 
0.44 µM | 1.47 µM | 7.07 µM | O=C1C=CCCN1C(=O)/C=C/c1cnn(CC(F)(F)F)c1 [Compound 90, 1 11-{(2E)-3-[1-(2,2,2-trifluoroethyl)-1H-pyrazol-4-yl]prop-2-enoyl}-5,6-dihydropyridin-2(1H)-one] |  |  | 
